Seven molecules from patent publication US9340590B2 (priority 2011, dated 2016) can be followed below.

Assay in all cases: cell-based
The target in one assay is hNav1.7 (Homo sapiens, UniProt Q15858). Format: cell-based.
The next assay deals with hNav1.5 (Homo sapiens, UniProt Q14524).
For another assay, the target named is hNav1.3 (Homo sapiens, UniProt Q9NY46). The note with it: IonWorks Quattro, read-out: IWQ Use Nav1.3. A general note: In patch-clamp work, channel activity is measured electrically.
Where [1] appears, read: IonWorks Quattro, clamped to −110 mV, depolarized to −10 mV, 5 min after compound, n=2, read-out: IWQ Use Nav1.7.
Where [2] appears, read: IonWorks Quattro, clamped to −110 mV, depolarized to −10 mV, 5 min after compound, n=2, read-out: IWQ Use Nav1.5.
The mark [3] stands for this setting: clamped to −110 mV, depolarized to −10 mV, 5 min after compound, n=2.

Read-outs that look alike come from different tables or passages of the source. Positions of bridges follow the written chain, without caps; N, C: chain ends. Non-standard residues stand in square brackets, D forms with d. Residues, ends and D or L forms follow the SMILES beside them. Abu = CC[C@H](N)C(=O)O

Chain of hNav1.7 (Q15858 whole entry, looked up): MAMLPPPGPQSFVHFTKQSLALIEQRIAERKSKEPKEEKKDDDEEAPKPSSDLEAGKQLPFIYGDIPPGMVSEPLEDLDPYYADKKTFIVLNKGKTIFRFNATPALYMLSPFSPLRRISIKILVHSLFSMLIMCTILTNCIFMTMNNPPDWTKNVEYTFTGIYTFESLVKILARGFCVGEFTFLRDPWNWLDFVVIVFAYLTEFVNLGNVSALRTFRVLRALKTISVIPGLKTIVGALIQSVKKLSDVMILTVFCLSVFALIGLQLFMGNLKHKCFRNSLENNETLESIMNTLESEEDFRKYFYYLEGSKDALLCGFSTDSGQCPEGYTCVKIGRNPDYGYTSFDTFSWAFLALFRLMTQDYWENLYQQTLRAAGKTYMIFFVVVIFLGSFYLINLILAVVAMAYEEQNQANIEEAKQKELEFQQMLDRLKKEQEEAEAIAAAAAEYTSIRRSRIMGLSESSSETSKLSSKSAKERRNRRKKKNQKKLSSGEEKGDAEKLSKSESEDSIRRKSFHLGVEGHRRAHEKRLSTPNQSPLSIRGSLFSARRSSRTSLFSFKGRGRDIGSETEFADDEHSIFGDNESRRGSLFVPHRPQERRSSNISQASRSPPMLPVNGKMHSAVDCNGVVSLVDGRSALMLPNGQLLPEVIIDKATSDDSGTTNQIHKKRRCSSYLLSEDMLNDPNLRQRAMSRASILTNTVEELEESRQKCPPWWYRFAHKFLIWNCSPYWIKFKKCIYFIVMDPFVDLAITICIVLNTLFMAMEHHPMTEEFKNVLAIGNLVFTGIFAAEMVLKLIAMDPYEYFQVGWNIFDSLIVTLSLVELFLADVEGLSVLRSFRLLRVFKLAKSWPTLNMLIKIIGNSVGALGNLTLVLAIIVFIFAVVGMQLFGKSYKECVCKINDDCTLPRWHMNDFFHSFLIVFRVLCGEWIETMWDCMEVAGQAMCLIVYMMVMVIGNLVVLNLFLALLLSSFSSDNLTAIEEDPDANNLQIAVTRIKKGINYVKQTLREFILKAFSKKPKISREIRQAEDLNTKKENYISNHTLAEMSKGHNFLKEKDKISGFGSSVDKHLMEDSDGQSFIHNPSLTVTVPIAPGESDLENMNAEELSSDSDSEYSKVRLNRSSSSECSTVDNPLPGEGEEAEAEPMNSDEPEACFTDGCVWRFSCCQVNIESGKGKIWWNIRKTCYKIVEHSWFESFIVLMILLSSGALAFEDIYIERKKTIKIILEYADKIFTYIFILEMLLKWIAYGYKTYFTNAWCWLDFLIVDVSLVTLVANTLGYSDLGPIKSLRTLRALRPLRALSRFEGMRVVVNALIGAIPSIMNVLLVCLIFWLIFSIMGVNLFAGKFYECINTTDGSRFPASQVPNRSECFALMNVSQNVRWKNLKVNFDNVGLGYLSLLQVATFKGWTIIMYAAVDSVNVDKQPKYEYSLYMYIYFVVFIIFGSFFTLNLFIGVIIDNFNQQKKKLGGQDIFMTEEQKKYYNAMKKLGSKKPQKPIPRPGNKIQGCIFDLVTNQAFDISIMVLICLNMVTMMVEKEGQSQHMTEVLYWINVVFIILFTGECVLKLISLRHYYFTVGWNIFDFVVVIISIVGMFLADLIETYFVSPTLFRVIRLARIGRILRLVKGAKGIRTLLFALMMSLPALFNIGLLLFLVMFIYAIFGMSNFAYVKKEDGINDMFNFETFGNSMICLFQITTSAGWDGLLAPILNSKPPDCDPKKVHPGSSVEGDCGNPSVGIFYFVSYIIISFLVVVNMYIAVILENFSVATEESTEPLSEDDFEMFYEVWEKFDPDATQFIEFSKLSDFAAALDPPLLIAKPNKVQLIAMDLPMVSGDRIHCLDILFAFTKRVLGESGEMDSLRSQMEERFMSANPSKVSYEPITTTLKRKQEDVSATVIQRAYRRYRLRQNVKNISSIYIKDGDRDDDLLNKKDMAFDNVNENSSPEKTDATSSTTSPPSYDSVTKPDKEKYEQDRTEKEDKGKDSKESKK
Chain of hNav1.5 (Q14524 whole entry, looked up): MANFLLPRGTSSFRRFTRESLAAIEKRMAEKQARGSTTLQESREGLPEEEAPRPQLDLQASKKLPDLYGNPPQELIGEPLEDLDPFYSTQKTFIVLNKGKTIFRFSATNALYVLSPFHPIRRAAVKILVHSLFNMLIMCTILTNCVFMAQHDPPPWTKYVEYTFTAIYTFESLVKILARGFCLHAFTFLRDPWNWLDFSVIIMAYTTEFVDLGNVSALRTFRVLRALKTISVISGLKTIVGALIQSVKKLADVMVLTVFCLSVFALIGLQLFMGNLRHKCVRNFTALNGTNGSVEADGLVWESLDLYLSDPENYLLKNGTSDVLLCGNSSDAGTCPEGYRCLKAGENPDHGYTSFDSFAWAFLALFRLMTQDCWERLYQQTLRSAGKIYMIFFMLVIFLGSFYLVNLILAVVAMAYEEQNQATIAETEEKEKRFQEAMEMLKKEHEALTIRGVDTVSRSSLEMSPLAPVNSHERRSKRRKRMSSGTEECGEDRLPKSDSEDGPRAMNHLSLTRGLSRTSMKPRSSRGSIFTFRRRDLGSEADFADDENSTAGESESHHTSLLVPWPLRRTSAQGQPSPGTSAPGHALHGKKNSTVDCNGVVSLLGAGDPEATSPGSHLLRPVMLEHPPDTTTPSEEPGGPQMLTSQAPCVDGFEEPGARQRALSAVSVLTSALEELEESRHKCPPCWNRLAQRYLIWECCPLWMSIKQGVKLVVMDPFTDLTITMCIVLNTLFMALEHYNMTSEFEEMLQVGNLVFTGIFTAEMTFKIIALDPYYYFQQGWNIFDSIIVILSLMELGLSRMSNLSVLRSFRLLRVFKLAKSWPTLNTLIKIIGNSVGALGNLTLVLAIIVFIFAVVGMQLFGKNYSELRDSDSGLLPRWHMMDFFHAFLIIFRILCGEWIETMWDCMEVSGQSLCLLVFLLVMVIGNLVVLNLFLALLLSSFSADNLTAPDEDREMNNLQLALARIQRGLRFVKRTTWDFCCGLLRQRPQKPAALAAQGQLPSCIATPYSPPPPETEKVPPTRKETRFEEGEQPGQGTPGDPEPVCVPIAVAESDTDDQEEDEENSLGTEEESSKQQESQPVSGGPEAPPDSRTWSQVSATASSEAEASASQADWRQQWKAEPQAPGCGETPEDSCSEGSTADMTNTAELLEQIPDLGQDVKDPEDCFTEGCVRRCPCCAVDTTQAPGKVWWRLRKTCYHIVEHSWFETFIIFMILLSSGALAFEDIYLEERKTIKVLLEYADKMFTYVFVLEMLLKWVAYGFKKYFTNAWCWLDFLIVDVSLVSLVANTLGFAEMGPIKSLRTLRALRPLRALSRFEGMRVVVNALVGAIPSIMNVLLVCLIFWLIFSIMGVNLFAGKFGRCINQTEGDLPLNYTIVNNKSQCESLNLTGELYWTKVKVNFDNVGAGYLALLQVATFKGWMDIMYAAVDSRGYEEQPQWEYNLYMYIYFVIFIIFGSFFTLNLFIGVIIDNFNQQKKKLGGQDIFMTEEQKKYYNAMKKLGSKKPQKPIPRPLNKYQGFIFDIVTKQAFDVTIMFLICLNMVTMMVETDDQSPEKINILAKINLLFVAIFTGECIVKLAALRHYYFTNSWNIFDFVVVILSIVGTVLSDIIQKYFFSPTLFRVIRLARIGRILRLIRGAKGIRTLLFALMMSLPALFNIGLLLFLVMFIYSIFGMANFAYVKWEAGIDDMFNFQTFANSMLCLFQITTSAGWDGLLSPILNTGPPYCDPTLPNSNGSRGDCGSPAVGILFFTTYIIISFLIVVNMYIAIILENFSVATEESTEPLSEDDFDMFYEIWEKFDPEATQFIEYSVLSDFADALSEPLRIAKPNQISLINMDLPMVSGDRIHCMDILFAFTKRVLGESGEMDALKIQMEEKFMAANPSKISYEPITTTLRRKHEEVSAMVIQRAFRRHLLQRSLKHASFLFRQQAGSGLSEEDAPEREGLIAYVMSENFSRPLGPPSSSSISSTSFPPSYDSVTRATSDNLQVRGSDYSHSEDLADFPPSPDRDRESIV

With `CC[C@H](C)[C@@H]1NC(=O)[C@@H]2CSSC[C@@H]3NC(=O)[C@H](C(C)C)NC(=O)[C@H](CC(C)C)NC(=O)[C@H](CC(N)=O)NC(=O)[C@@H]4CCCN4C(=O)[C@H](CCCNC(=N)N)NC(=O)[C@H](CSSC[C@H](NC(=O)[C@@H](N)Cc4ccc(O)cc4)C(=O)N[C@@H](CC(C)C)C(=O)NCC(=O)N[C@@H](Cc4ccccc4)C(=O)N[C@@H](CCSC)C(=O)N[C@@H](CCCNC(=N)N)C(=O)N[C@@H](CCCCN)C(=O)N2)NC(=O)[C@H](CSSC[C@@H](C(=O)N[C@@H](CCCCN)C(=O)N[C@@H](Cc2ccc(O)cc2)C(=O)N[C@H](C(=O)N[C@@H](Cc2ccccc2)C(N)=O)C(C)C)NC(=O)[C@H](Cc2c[nH]c4ccccc24)NC(=O)[C@H](CCCCN)NC(=O)[C@H](Cc2c[nH]cn2)NC(=O)[C@H]([C@@H](C)O)NC(=O)[C@H](CCCNC(=N)N)NC(=O)[C@H](CO)NC3=O)NC(=O)[C@H](CCCCN)NC(=O)[C@H](CC(=O)O)NC(=O)[C@H](CC(N)=O)NC(=O)[C@H](CC(=O)O)NC(=O)[C@@H]2CCCN2C1=O` [SEQ ID NO: 97] (H-YCLGFMRKCIPDNDKCCRPNLVCSRTHKWCKYVF-NH2; disulfide 2-17, 9-23, 16-30), the IC50 at hNav1.7 (setting [1]) came to 160 nM; at hNav1.5 (setting [2]), 10600 nM; at hNav1.3 (setting [3]), 130 nM.

As to `CC[C@H](C)[C@@H]1NC(=O)[C@@H]2CSSC[C@@H]3NC(=O)[C@H](C(C)C)NC(=O)[C@H](CC(C)C)NC(=O)[C@H](CC(N)=O)NC(=O)[C@@H]4CCCN4C(=O)[C@H](CCCNC(=N)N)NC(=O)[C@H](CSSC[C@H](NC(=O)[C@@H](N)CC(=O)O)C(=O)N[C@@H](CCC(N)=O)C(=O)NCC(=O)N[C@@H](Cc4ccccc4)C(=O)N[C@@H](CCSC)C(=O)N[C@@H](CCCNC(=N)N)C(=O)N[C@@H](CCCCN)C(=O)N2)NC(=O)[C@H](CSSC[C@@H](C(=O)N[C@@H](CCCCN)C(=O)N[C@@H](Cc2ccc(O)cc2)C(=O)N[C@H](C(=O)N[C@@H](Cc2ccccc2)C(N)=O)C(C)C)NC(=O)[C@H](Cc2c[nH]c4ccccc24)NC(=O)[C@H](CCCCN)NC(=O)[C@H](Cc2c[nH]cn2)NC(=O)[C@H]([C@@H](C)O)NC(=O)[C@H](CCCNC(=N)N)NC(=O)[C@H](CO)NC3=O)NC(=O)[C@H](CCCCN)NC(=O)[C@H](CC(=O)O)NC(=O)[C@H](CC(N)=O)NC(=O)[C@H](CC(=O)O)NC(=O)[C@@H]2CCCN2C1=O` [SEQ ID NO: 98] (H-DCQGFMRKCIPDNDKCCRPNLVCSRTHKWCKYVF-NH2; disulfide 2-17, 9-23, 16-30), the IC50 on hNav1.7 (setting [1]) came to 250 nM; at hNav1.5 (setting [2]), 16400 nM; on hNav1.3 (setting [3]) it was 240 nM.

With `CC[C@H](C)[C@@H]1NC(=O)[C@@H]2CSSC[C@@H]3NC(=O)[C@H](C(C)C)NC(=O)[C@H](CC(C)C)NC(=O)[C@H](CC(N)=O)NC(=O)[C@@H]4CCCN4C(=O)[C@H](CCCNC(=N)N)NC(=O)[C@H](CSSC[C@H](NC(=O)[C@@H](N)CC(=O)O)C(=O)N[C@@H](CC(C)C)C(=O)NCC(=O)N[C@@H](Cc4cccc5ccccc45)C(=O)N[C@@H](CCSC)C(=O)N[C@@H](CCCNC(=N)N)C(=O)N[C@@H](CCCCN)C(=O)N2)NC(=O)[C@H](CSSC[C@@H](C(=O)N[C@@H](CCCCN)C(=O)N[C@@H](Cc2ccc(O)cc2)C(=O)N[C@H](C(=O)N[C@@H](Cc2ccccc2)C(N)=O)C(C)C)NC(=O)[C@H](Cc2c[nH]c4ccccc24)NC(=O)[C@H](CCCCN)NC(=O)[C@H](Cc2c[nH]cn2)NC(=O)[C@H]([C@@H](C)O)NC(=O)[C@H](CCCNC(=N)N)NC(=O)[C@H](CO)NC3=O)NC(=O)[C@H](CCCCN)NC(=O)[C@H](CC(=O)O)NC(=O)[C@H](CC(N)=O)NC(=O)[C@H](CC(=O)O)NC(=O)[C@@H]2CCCN2C1=O` [SEQ ID NO: 105], the IC50 on hNav1.7 (setting [1]) turned out to be 80 nM; against hNav1.5 (IWQ Use Nav1.5), 13400 nM; at hNav1.3 (setting [3]), 100 nM.

As for `CC[C@H](C)[C@@H]1NC(=O)[C@@H]2CSSC[C@@H]3NC(=O)[C@H](C(C)C)NC(=O)[C@H](CC(C)C)NC(=O)[C@H](CC(N)=O)NC(=O)[C@@H]4CCCN4C(=O)[C@H](CCCNC(=N)N)NC(=O)[C@H](CSSC[C@H](NC(=O)[C@H](CC(=O)O)NC(=O)[C@@H](N)Cc4c[nH]c5ccccc45)C(=O)N[C@@H](CC(C)C)C(=O)NCC(=O)N[C@@H](Cc4ccccc4)C(=O)N[C@@H](CCSC)C(=O)N[C@@H](CCCNC(=N)N)C(=O)N[C@@H](CCCCN)C(=O)N2)NC(=O)[C@H](CSSC[C@@H](C(=O)N[C@@H](CCCCN)C(=O)N[C@@H](Cc2ccc(O)cc2)C(=O)N[C@H](C(=O)N[C@@H](Cc2ccccc2)C(N)=O)C(C)C)NC(=O)[C@H](Cc2c[nH]c4ccccc24)NC(=O)[C@H](CCCCN)NC(=O)[C@H](Cc2cnc[nH]2)NC(=O)[C@H]([C@@H](C)O)NC(=O)[C@H](CCCNC(=N)N)NC(=O)[C@H](CO)NC3=O)NC(=O)[C@H](CCCCN)NC(=O)[C@H](CC(=O)O)NC(=O)[C@H](CC(N)=O)NC(=O)[C@H](CC(=O)O)NC(=O)[C@@H]2CCCN2C1=O` [SEQ ID NO: 106], the IC50 was determined as 220 nM at hNav1.7 (setting [1]), 22000 nM at hNav1.5 (setting [2]) and 250 nM at hNav1.3 (setting [3]).

As to `CC[C@H](C)[C@@H]1NC(=O)[C@@H]2CSSC[C@@H]3NC(=O)[C@H](C(C)C)NC(=O)[C@H](CC(C)C)NC(=O)[C@H](CC(N)=O)NC(=O)[C@@H]4CCCN4C(=O)[C@H](CCCNC(=N)N)NC(=O)[C@H](CSSC[C@H](NC(=O)[C@@H](N)CC(=O)O)C(=O)N[C@@H](CC(C)C)C(=O)NCC(=O)N[C@@H](Cc4ccccc4)C(=O)N[C@@H](CCSC)C(=O)N[C@@H](CCCNC(=N)N)C(=O)N[C@@H](CCCCN)C(=O)N2)NC(=O)[C@H](CSSC[C@@H](C(=O)N[C@@H](CCCCN)C(=O)N[C@@H](Cc2ccc(O)cc2)C(=O)N[C@H](C(=O)N[C@@H](Cc2ccccc2)C(N)=O)C(C)C)NC(=O)[C@H](Cc2c[nH]c4ccccc24)NC(=O)[C@H](CCCCN)NC(=O)[C@H](Cc2cnc[nH]2)NC(=O)[C@H](CC(C)C)NC(=O)[C@H](CCCNC(=N)N)NC(=O)[C@H](CO)NC3=O)NC(=O)[C@H](CCCCN)NC(=O)[C@H](CC(=O)O)NC(=O)[C@H](CC(N)=O)NC(=O)[C@H](CC(=O)O)NC(=O)[C@@H]2CCCN2C1=O` [SEQ ID NO: 121, [Leu26]GpTx-1] (H-DCLGFMRKCIPDNDKCCRPNLVCSRLHKWCKYVF-NH2; disulfide 2-17, 9-23, 16-30), the IC50 on hNav1.7 came to 70 nM; on hNav1.5 (Table 22, IonWorks Quattro, use, […], read-out: IWQ Use Nav1.5) it was 10200 nM; at hNav1.3 (Table 22, use, […]), 70 nM.

Regarding `CC[C@@H]1NC(=O)[C@H](Cc2ccccc2)NC(=O)CNC(=O)[C@H](CC(C)C)NC(=O)[C@@H](NC(=O)[C@@H](N)CC(=O)O)CSSC[C@@H]2NC(=O)[C@@H]3CSSC[C@@H](C(=O)N[C@@H](CCCCN)C(=O)N[C@@H](Cc4ccc(O)cc4)C(=O)N[C@H](C(=O)N[C@@H](Cc4ccccc4)C(N)=O)C(C)C)NC(=O)[C@H](Cc4c[nH]c5ccccc45)NC(=O)[C@H](CCCCN)NC(=O)[C@H](Cc4c[nH]cn4)NC(=O)[C@H]([C@@H](C)O)NC(=O)[C@H](CCCNC(=N)N)NC(=O)[C@H](CO)NC(=O)[C@H](CSSC[C@H](NC(=O)[C@H](CCCCN)NC(=O)[C@H](CCCNC(=N)N)NC1=O)C(=O)N[C@@H]([C@@H](C)CC)C(=O)N1CCC[C@H]1C(=O)N[C@@H](CC(=O)O)C(=O)N[C@@H](CC(N)=O)C(=O)N[C@@H](CC(=O)O)C(=O)N[C@@H](CCCCN)C(=O)N3)NC(=O)[C@H](C(C)C)NC(=O)[C@H](CC(C)C)NC(=O)[C@H](CC(N)=O)NC(=O)[C@@H]1CCCN1C(=O)[C@H](CCCNC(=N)N)NC2=O` [SEQ ID NO: 124], the IC50 at hNav1.7 (setting [1]) is 110 nM; at hNav1.5 (setting [2]), 10600 nM; on hNav1.3 (setting [3]), 100 nM.

On to `CC[C@@H]1NC(=O)[C@@H]2CSSC[C@@H](C(=O)N[C@@H](CCCCN)C(=O)N[C@@H](Cc3ccc(O)cc3)C(=O)N[C@H](C(=O)N[C@@H](Cc3ccccc3)C(N)=O)C(C)C)NC(=O)[C@H](Cc3c[nH]c4ccccc34)NC(=O)[C@H](CCCCN)NC(=O)[C@H](Cc3c[nH]cn3)NC(=O)[C@H]([C@@H](C)O)NC(=O)[C@H](CCCNC(=N)N)NC(=O)[C@H](CO)NC(=O)[C@H](CSSC[C@H](NC(=O)[C@H](CCCCN)NC(=O)[C@H](CCCNC(=N)N)NC(=O)[C@H](CCSC)NC(=O)[C@H](Cc3ccccc3)NC(=O)CNC(=O)[C@H](CC(C)C)NC(=O)[C@H](CC)NC(=O)[C@@H](N)CC(=O)O)C(=O)N[C@@H]([C@@H](C)CC)C(=O)N3CCC[C@H]3C(=O)N[C@@H](CC(=O)O)C(=O)N[C@@H](CC(N)=O)C(=O)N[C@@H](CC(=O)O)C(=O)N[C@@H](CCCCN)C(=O)N2)NC(=O)[C@H](C(C)C)NC(=O)[C@H](CC(C)C)NC(=O)[C@H](CC(N)=O)NC(=O)[C@@H]2CCCN2C(=O)[C@H](CCCNC(=N)N)NC1=O` [SEQ ID NO: 125, [2-Abu-2,17]GpTx-1] (H-D[Abu]LGFMRKCIPDNDKC[Abu]RPNLVCSRTHKWCKYVF-NH2; disulfide 9-23, 16-30), for which the IC50 on hNav1.7 (IonWorks Quattro, use-dependent block, hNav1.7, read-out: IWQ Use Nav1.7) came out at 300 nM; on hNav1.5 (IonWorks Quattro, use-dependent block, hNav1.5, read-out: IWQ Use Nav1.5), 9510 nM; on hNav1.3 (use-dependent block, hNav1.3) it was 240 nM.
